# From US6413937B1, “Combinations for use in increasing the potency of a substrate for multidrug resistance related protein” (Dublin City University and Enterprise Ireland, priority 1996, dated 2002)
# How the values were obtained:
# [1] = system: DLKP cell line; experiment: miniaturised in vitro colorimetric cell survival assay (acid phosphatase end-point), DLKP; type: cell-based, human
# Protocol: (§1) All the results presented in this Example for the DLKP, A549 and OAW42-SR cell lines were derived using the same miniaturised in vitro calorimetric assay system. On Day 1 of the assay 1000 cells/well/100 μl were plated into 96-well plates. Cells were allowed to attach overnight and cell viability was visually assessed. […] NSAID plus chemotherapeutic drug) to be analysed were added onto the cells. The individual drugs were added separately in 50 μl quantities (4× stocks, to take into account the dilution effect of having 200 μl final volume in each well). The drugs were left on the cells for five further days (Day 7) and cell number was determined using the acid phosphatase end-point assay which uses p-nitrophenol phosphate as substrate (Martin, A. and Clynes, M. (1991) In Vitro Dev. Biol., 27A, 183-184). On Day 7 the culture medium was removed from the cells and they were washed once with phosphate buffered saline (PBS). […] After the incubation period 50 μl of 1N NaOH was added to each well to develop the colour. The plates were then read at 405 nm (reference 620 nm) on an ELISA plate-reader. […] All results are the cell survival means ±S.D. from a minimum of three experiments.
# [2] = system: DLKP-A cell line; experiment: miniaturised in vitro colorimetric cell survival assay, P-170 overexpressing DLKP-A; type: cell-based, human; details: v) Vincristine 1.0 μg/ml alone
# Protocol: All the results presented in this Example for the DLKP, A549 and OAW42-SR cell lines were derived using the same miniaturised in vitro calorimetric assay system. On Day 1 of the assay 1000 cells/well/100 μl were plated into 96-well plates. Cells were allowed to attach overnight and cell viability was visually assessed. On Day 2 the two drugs (i.e. NSAID plus chemotherapeutic drug) to be analysed were added onto the cells. The individual drugs were added separately in 50 μl quantities (4× stocks, to take into account the dilution effect of having 200 μl final volume in each well). The drugs were left on the cells for five further days (Day 7) and cell number was determined using the acid phosphatase end-point assay which uses p-nitrophenol phosphate as substrate (Martin, A. and Clynes, M. (1991) In Vitro Dev. Biol., 27A, 183-184). On Day 7 the culture medium was removed from the cells and they were washed once with phosphate buffered saline (PBS). After washing, 100 μl of freshly prepared substrate-containing buffer (0.1% Triton X-100 in 0.1M sodium acetate, pH 5.5) was added to each well and the plates were left in an incubator at 37° C. for 2 h. After the incubation period 50 μl of 1N NaOH was added to each well to develop the colour. The plates were then read at 405 nm (reference 620 nm) on an ELISA plate-reader.
# In the results given below the % cell survival in the drug-free control is 100%. All results are the cell survival means ±S.D. from a minimum of three experiments.
# v) is an example of a positive NSAID plus a positive drug on a P-170 overexpressing cell line: DLKP-A;
# [3] = target: T1, MRP pump (Homo sapiens, UniProt P33527); experiment: ATP-dependent transport of [3H]LTC4 into inside-out plasma membrane vesicles from HL60ADR cells; type: biochemical
# T1 construct: inside-out plasma membrane vesicles prepared from HL60ADR cells; endogenous in cells; host or cells: HL60ADR cells (plasma membrane vesicles)
# T1 sequence (P33527 whole entry): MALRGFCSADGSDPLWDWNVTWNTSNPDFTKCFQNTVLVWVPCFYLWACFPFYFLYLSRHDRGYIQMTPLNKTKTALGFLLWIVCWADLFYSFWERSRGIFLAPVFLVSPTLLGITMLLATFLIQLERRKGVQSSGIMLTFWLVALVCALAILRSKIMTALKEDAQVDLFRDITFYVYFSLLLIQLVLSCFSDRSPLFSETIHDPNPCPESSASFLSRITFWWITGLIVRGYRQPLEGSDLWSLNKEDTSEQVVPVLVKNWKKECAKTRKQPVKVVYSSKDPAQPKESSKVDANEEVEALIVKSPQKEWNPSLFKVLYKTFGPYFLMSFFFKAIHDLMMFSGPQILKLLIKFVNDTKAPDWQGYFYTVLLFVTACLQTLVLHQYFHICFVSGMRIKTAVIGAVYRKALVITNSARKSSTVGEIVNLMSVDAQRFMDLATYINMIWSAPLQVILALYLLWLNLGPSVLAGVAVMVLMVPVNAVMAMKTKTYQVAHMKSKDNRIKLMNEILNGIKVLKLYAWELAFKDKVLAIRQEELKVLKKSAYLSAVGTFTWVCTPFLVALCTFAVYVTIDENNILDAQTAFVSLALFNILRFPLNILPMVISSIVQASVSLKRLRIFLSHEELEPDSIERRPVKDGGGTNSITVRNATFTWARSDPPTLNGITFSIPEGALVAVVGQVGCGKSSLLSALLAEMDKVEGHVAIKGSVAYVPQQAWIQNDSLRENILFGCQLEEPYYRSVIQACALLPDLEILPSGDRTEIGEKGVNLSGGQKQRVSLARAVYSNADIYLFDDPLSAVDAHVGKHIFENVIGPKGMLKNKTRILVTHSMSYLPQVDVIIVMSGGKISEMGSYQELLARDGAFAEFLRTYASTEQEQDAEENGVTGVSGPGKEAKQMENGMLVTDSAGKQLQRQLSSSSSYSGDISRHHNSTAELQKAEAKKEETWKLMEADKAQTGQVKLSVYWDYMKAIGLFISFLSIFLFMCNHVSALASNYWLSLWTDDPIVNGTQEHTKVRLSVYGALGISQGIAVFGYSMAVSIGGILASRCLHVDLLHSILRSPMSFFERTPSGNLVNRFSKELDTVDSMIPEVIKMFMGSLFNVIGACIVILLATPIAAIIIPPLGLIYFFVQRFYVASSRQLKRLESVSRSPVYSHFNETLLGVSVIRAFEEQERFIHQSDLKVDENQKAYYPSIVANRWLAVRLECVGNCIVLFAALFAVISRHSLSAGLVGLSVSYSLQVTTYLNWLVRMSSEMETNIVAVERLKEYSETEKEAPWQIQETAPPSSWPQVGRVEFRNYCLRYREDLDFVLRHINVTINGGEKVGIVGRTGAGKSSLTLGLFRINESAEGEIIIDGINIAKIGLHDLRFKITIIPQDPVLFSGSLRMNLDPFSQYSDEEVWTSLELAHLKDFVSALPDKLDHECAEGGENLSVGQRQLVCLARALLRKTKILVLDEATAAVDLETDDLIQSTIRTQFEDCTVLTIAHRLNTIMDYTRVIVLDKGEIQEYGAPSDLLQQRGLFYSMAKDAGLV
# Protocol: To determine if the NSAIDs were acting directly on the MRP pump the uptake of [^3H]LTC4 into inside-out plasma membrane vesicles prepared from HL60ADR cells was examined using a rapid filtration procedure (Ishikawa,T., et al. (1994); J. Biol. Chem. 269 (46); 29085-29093). ATP-dependent transport of [^3H]LTC4 into the membrane vesicles was measured by a rapid filtration method using a Millipore sampling manifold. The membrane vesicles were thawed at 37° C. before use and kept on ice. The reaction components consisted of 0.25 M sucrose/10 mM Tris.HCl pH 7.4/1 mM ATP/10 mM MgCl2/10 mM creatine phosphate/ 110 μg/ml creatine kinase and 10 nM [^3H]LTC4, with 50 μg of the inside-out vesicle preparation, in a final volume of 110 μl. This suspension was incubated at 37° C., with gentle mixing, and aliquots, 20 μl, were taken at the indicated points. Those aliquots were diluted in 1 ml of ice-cold incubation buffer before being applied to 0.22 μm Millipore GSWP nitrocellulose filters, pre-soaked in ice-cold incubation buffer, under suction. The filters were subsequently washed with 3 ml ice-cold incubation buffer, and absorbed radioactivity was measured using a scintillation counter (Beckman). In control experiments ATP was replaced with 5μ-AMP to determine the ATP-dependent transport.
# [4] = system: A549 cell line; experiment: miniaturised in vitro colorimetric cell survival assay (acid phosphatase end-point), A549; type: cell-based, human; details: alone or + Adriamycin 20 ng/ml
# Protocol: as §1
# [5] = system: SP2 mouse myeloma cells; experiment: mouse tumour model, survival of Balb/c mice injected with SP2 cells; type: in vivo; details: groups of 8 Balb/c mice; i.p. once a day, five days a week; adriamycin 0.25 mg/kg, tolmetin 70 mg/kg; after 32 days
# Protocol: The in vivo relevance of our findings was studied using a mouse tumour model. SP2 tumour cells were injected into 4 groups of mice. Groups of 8 male Balb/c mice 8 weeks old were maintained on normal diets. Animals were injected with 2 million SP2 mouse myeloma cells on day 1. On day 3 intraperitoneal injection with adriamycin, tolmetin or a combination of the two was begun. This continued once a day, five days a week for a total of 32 days. The agents were dissolved in PBS and prepared freshly twice per week. The animals were weighed and the average weight of the group was used to calculate the required concentration of the drugs. Adriamycin was administered to give a final concentration of 0.25 mg/kg, the tolmetin dose was 70 mg/kg. […] The results were expressed as the number of animals alive each day as a percentage of the original number of animals alive.
# Group 1 received injections of the vehicle (PBS) alone, group 2, adriamycin at 0.25 mg/kg, group 3, tolmetin at 70 mg/kg and group 4 received both agents (adriamycin, 0.25 mg/kg and tolmetin, 70 mg/kg). After 32 days there were clear differences in the % survival between the groups (FIG. 5). […] Two mice remained in the adriamycin group but 5 survived to the end of the experiment from the combination group (group 4).
# [6] = system: MRP-specific substrates; experiment: screen for enhancement of toxicity of MRP substrates by NSAIDs; type: cell-based; details: summary statements
# [7] = system: GST prepared from DLKP cells; experiment: total GST assay with 1-chloro-2,4-dinitrobenzene; type: biochemical, human; details: 0.4 mM
# Protocol: The other NSAIDs were tested in a total GST assay (Habig, W. H., and Jakoby, W. B., (1981); Methods Enzymol., 77: 218-231). Total cellular GST activity was assayed, using 1-chloro-2,4-dinitrobenzene as a substrate, according to the method of Habig, W. H., and Jakoby, W. B., (1981); supra. Due to spectrophotometric interference at 340 nm, caused by the majority of the NSAIDs, the assays were all performed at 360 nm, without any apparent effect on the rate of the control reaction The results are shown in Table 5.
# [8] = system: DLKP-7 cells; experiment: adriamycin efflux from loaded cells, HPLC; type: cell-based
# Protocol: DLKP-7 cells were seeded into 75 cm^2 flasks at 0.5×10^6 cells/10 ml ATCC medium. The cells were left for 2 days, the ATCC medium was removed and fresh medium containing adriamycin (0.5 μg/ml) was added. Following a 2 hour incubation this medium was removed, the flasks were washed twice with PBS, 10 ml ATCC medium or ATCC medium containing the test NSAID was added, and the cells were incubated for a further 4 hr. The cells were trypsinised and the pellet was frozen at −20° C. Duplicate flasks for each time point were prepared. The NSAIDs used were indomethacin 10 μg/ml and piroxicam 20 μg/ml.
# The amount of adriamycin in the cells was quantified using liquid-liquid extraction and reverse-phase HPLC analysis. The frozen cell pellets were thawed and resuspended in […] of water/100 μl of 33% silver nitrate and mixed for 5 min. 300 μl of methanol, containing 1.5 μg of daunorubicin as an internal standard (IS), and 1.3 ml of acetonitrile were then added and the tubes mixed for a further 5 min. The mixture was transferred to glass tubes and kept at 4° C. for 1 hr. The tubes were then centrifuged at 1000 g for 15 min. to pellet any solid material. 1.1 ml of the supernatant was removed to HPLC autosampler vials (Labquip, Dublin, Ireland). The solvent was evaporated off at room temperature under a stream of nitrogen gas.
# The extract was resuspended in 50 μl of mobile phase 1 (MP1): 32 ml of 0.1 M phosphoric acid mixed with 244 ml of ultrapure water, pH: 2.3 (adjusted upwards with a few drops of 1N potassium hydroxide) to which 124 ml of acetonitrile was added and the final mixture was degassed in a sonicating bath for 5 min. The second mobile phase (MP2) consisted of acetonitrile. The resuspended sample (20 μl) was automatically injected into the HPLC system. The HPLC system comprised a Beckman System Gold 507 autosampler, 125 pump and 166 detector. The MP was pumped through a C18 reversed-phase Prodigy 5 μm particle size ODS-3 column (Phenomenex, Macclesfield, England) (dimensions 150×4.6mm) and absorbance was measured at 253 nm. For the first 14 min. of the chromatographic run MP 1 was pumped at 0.5 ml/min. From 14 min. to 20 min. the column was switched to MP 2. At 20 min. the column was switched back to MP 1 and the flow rate increased to 1 ml/min. At 30 min. the flow rate was brought back to 0.5 ml/min. The run continued for a further 5 min. giving a total run time of 35 min. The amount of adriamycin present was quantified by measuring its peak area and the peak area of the IS. The peak area of the adriamycin was divided by the area of the IS peak and the ratio plotted against a concentration series for spiked adriamycin samples.
# [9] = system: HL-60ADR cells; experiment: etoposide-induced apoptosis (nuclear fragmentation), HL-60ADR; type: cell-based; details: HL-60ADR (resistant); etoposide alone or co-treated with sulindac; FIG. 1
# Protocol: An experiment was carried out to determine the effect of the NSAID sulindac on etoposide-induced apoptosis in two cell lines, namely HL-60S and HL-60ADR. These cell lines were donated by Dr. Melvin Center, Kansas State University, Manhattan Kans. 66506, U.S.A. For the HL-60S and ADR cell lines the percentage of apoptotic cells within the cell population, following drug exposure, was used to quantify toxicity. Cells were plated in fresh medium at a concentration of 10^6 cells/ml in a 24-well plate (Greiner) and drugs were then added to the wells. A 200 μl sample from each well was taken after 4 and 8 hrs. Samples were cytospun for 2 min at 500 rpm using a Shandon Cytofuge3. After air-drying the cytospins were stained using a Romanowsky staining kit, Rappi-Diff II (Langanbach), dried and mounted in DPX (BDH). Slides were studied on an Optiphot microscope (Nikon) fitted with a 40× objective, and visualised on a monitor via a Mitsubishi CCD-100E colour CCD-camera and a 0.6× relay lens. Nuclear fragmentation was used as a morphological marker for apoptosis and a minimum of 200 cells were assessed in at least three different microscopic fields. Results were expressed as the percentage of apoptotic cells within the population. Each experiment was repeated in duplicate.
smiles,measurement,setting,value
"CC[C@]1(O)C[C@H]2CN(CCc3c([nH]c4ccccc34)[C@@](C(=O)OC)(c3cc4c(cc3OC)N(C=O)[C@H]3[C@@](O)(C(=O)OC)[C@H](OC(C)=O)[C@]5(CC)C=CCN6CC[C@]43[C@@H]65)C2)C1 [Vincristine, vincristine]",% cell survival,[1]; ii) Vincristine 1.0 ng/ml alone,72.98 ± 3.5%
same,% cell survival,[2],89.12 ± 1.3%
"Cc1ccc(C(=O)c2ccc(CC(=O)O)n2C)cc1 [Tolmetin, tolmetin]",inhibition at 432 µM,[3]; 0.432 mM,22%
same,inhibition at 863 µM,[3]; 0.863 mM,50%
same,% cell survival,[4]; xiv) Tolmetin 8.50 μg/ml,91.84 ± 10.99%
same,% cell survival,[4]; xiv) Tolmetin 14.10 μg/ml,97.59 ± 9.85%
same,% cell survival,[4]; xiv) Tolmetin 24.20 μg/ml,99.24 ± 10.35%
same,mice surviving to the end of the experiment,[5],all but one from group 3 were dead
same,enhancement of toxicity of MRP substrates,[6],have been found to enhance the toxicity of MRP-specific substrates
same,% cell survival,"[1]; i) Tolmetin 6.25 μg/ml, alone or + Adriamycin 10 ng/ml",104.38 ± 6.8%
same,% cell survival,"[1]; i) Tolmetin 12.5 μg/ml, alone or + Adriamycin 10 ng/ml",104.23 ± 6.2%
same,% cell survival,"[1]; i) Tolmetin 25 μg/ml, alone or + Adriamycin 10 ng/ml",100.49 ± 7.3%
same,% Inhibition of GST,[7],55%
CN1C(C(=O)Nc2ccccn2)=C(O)c2ccccc2S1(=O)=O [Piroxicam],inhibition at 302 µM,[3]; 0.302 mM,0%
same,MRP-pump inhibitory activity,[3]; conclusion from Table 4,do not
same,% Adriamycin content at 0 h,"[8]; cells loaded with adriamycin 0.5 μg/ml 2 h, indomethacin 10 μg/ml, piroxicam 20 μg/ml, 0 h",100%
same,% Adriamycin content at 4 h,"[8]; cells loaded with adriamycin 0.5 μg/ml 2 h, indomethacin 10 μg/ml, piroxicam 20 μg/ml, 4 h",67 ± 10%
same,level of adriamycin within the treated cells,[8]; during the 4 hours of the experiment,gradually decreased
same,enhancement of toxicity of MRP substrates,[6],negative
"COc1cc([C@@H]2c3cc4c(cc3[C@@H](O[C@@H]3O[C@@H]5CO[C@@H](C)O[C@H]5[C@H](O)[C@H]3O)[C@H]3COC(=O)[C@H]23)OCO4)cc(OC)c1O [VP-16, etoposide]","etoposide-induced apoptosis, percentage of apoptotic cells",[9],only a basal level of apoptosis is seen
same,% cell survival,[1]; iii) VP-16 100 ng/ml alone,63.46 ± 1.4%
